# Experiments:
# [1] = log P determination by HPLC (reversed-phase C18), EEC Directive 79/831 Annex V.A8; format: physicochemical; conditions: reversed-phase C18 HPLC column; a) acidic range: 0.1% aqueous phosphoric acid, acetonitrile, linear gradient 10% to 90% acetonitrile; HPLC C18, 43° C.
# Description: (a) Mobile phases for the determination in the acidic range: 0.1% aqueous phosphoric acid, acetonitrile; linear gradient from 10% acetonitrile to 90% acetonitrile—the corresponding test results in Table I are labelled a).
# (b) Mobile phases for the determination in the neutral range: 0.01 molar aqueous phosphate buffer solution, acetonitrile; linear gradient from 10% acetonitrile to 90% acetonitrile—the corresponding test results in Table 1 are labelled b).
# weeds [2] = test: Post-emergence test (Example B); format: in vivo; conditions: test plants of 5-15 cm sprayed, rated after three weeks vs untreated control
# Experimental: (§1) Solvent: 5 parts by weight of acetone
# (§2) Emulsifier: 1 part by weight of alkylaryl polyglycol ether
# (§3) To produce a suitable preparation of active compound, 1 part by weight of active compound is mixed with the stated amount of solvent, the stated amount of emulsifier is added and the concentrate is diluted with water to the desired concentration.
# Test plants of a height of 5-15 cm are sprayed with the preparation of active compound such that the particular amounts of active compound desired are applied per unit area. The concentration of the spray liquor is chosen such that the particular amounts of active compound desired are applied in 1000 l of water/ha.
# After three weeks, the degree of damage to the plants is rated in % damage in comparison to the development of the untreated control.
# (§4) 0%=no effect (like untreated control)
# weeds [3] = test: Pre-emergence test (Example A); format: in vivo; conditions: soil sprayed 24 hours after sowing, rated after three weeks vs untreated control
# Experimental: as §1, §2, §3
# Seeds of the test plants are sown in normal soil. After 24 hours, the soil is sprayed with the preparation of active compound such that the particular amount of active compound desired is applied per unit area. The concentration of active compound in the spray liquor is chosen such that the particular amount of active compound desired is applied in 1000 liters of water per hectare.
# After three weeks, the degree of damage to the plants is rated in % damage in comparison to the development of the untreated control. The figures denote:
# as §4
structure (smiles),measurement,setting,value
"O=c1cc(C(F)(F)F)[nH]c(=O)n1-c1cc(Oc2ncccn2)c(Br)cc1F [Example 1, 1-[4-bromo-2-fluoro-5-(pyrimidin-2-yl-oxy)-phenyl]-4-trifluoromethyl-3,6-dihydro-2,6-dioxo-1 (2H)-pyrimidine]",chromatographic logP,[1],1.96
"Cn1c(C(F)(F)F)cc(=O)n(-c2cc(Oc3ncccn3)c(Br)cc2F)c1=O [Example 2, 1-[4-bromo-2-fluoro-5-(pyrimidin-2-yl-oxy)-phenyl]-3-methyl-4-trifluoromethyl-3 ,6-dihydro-2,6-dioxo-1 (2H)-pyrimidine]",activity against weeds (degree of damage to the plants),weeds [2],very strong activity
same,activity against weeds (degree of damage to the plants),weeds [3],very strong activity
same,chromatographic logP,[1],2.47

# Source: patent US6649760B2, “Substituted phenyluracils” (priority 2000, dated 2003)
